Results reported in patent publication US5104814A, “Assay kit and methods for neuroleptic drugs” (Schering Corporation, priority 1990, dated 1992).

Tests used:
D-1 receptor [1] = target: T1, D-1 receptor (Rattus norvegicus, UniProt P18901); test: Competition binding with [N-methyl-^3 H] Compound as radioligand in rat striatal tissue; conditions: rat striatum, radioligand 1.0 nM; read-out: KI, inhibition of binding of the labelled Compound
T1 construct: Striatal tissue was excised, pooled, and homogenized; from tissue; host or cells: striatum of male Sprague-Dawley rats, homogenized and washed by centrifugation
T1 sequence (P18901 whole entry): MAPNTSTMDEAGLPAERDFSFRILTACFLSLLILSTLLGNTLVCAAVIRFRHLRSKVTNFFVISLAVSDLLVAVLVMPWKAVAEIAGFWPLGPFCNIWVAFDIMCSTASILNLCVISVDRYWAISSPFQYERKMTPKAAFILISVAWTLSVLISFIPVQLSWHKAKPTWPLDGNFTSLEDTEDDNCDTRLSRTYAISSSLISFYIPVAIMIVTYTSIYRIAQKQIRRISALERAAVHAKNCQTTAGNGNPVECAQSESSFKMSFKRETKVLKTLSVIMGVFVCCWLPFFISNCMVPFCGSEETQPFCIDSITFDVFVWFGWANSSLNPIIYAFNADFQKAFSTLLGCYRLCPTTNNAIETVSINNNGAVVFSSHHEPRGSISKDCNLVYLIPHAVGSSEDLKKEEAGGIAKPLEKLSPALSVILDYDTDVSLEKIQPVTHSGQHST
Experimental: (§1) Male Sprague-Dawley rats (200 to 250 g) from Charles River Breeding Laboratories, Mass. were used to obtain brain tissue. The rats were decapitated, their brains removed and placed on ice. Striatal tissue was excised, pooled, and homogenized (Brinkman Polytron, 10 sec) in 100 volumes (v/v) of ice cold 50mM Tris-HCl buffer, pH 7.4 (at 25° C.). The homogenate was centrifuged at 20,000×g for 10 min. The resultant pellet was rehomogenized in Tris-HCl buffer and centrifuged again. The final pellet was resuspended in 50 mM Tris-HCl buffer pH 7.4 containing 120 mM NaCl, 5 mM KCL, 2 mM CaCl2, and 1 mM MgCl2.
To test the receptor specificity of [N-methyl-^3 H]

D-1 receptor [2] = target: T1, D-1 receptor; test: Saturation binding of [N-methyl-^3 H] Compound in rat striatum; conditions: binding as a function of radioligand concentration, 25 min
Experimental: as §1

rat striatal membranes = test: In vivo labeling of rat striatal membranes by [N-methyl-^3 H] Compound after subcutaneous injection
[3] = Recovery of radioactivity from polypropylene assay tubes (adsorption onto surfaces); format: physicochemical; conditions: polypropylene tubes used in these experiments
dopamine D-1 receptors = conditions: J. Pharmacol. Exp. Ther., 226: 462 (1983); cited from earlier work

CN1CCc2cc(Cl)c(O)cc2[C@H]2c3ccccc3CC[C@@H]21 [Compound, [-]trans 6,7,7a,8,9,13b-hexahydro-3-chloro-2-hydroxy-N-methyl-5H-benzo[d]naphtho[2,1-b]-azepine]
Ki (D-1 receptor [1]): 3.6 nM

[3H]C([3H])([3H])N1CCc2cc(Cl)c(O)cc2C2c3ccccc3CCC21 (stereo not drawn) [[N-methyl-^3 H] Compound]
KD (disassociation constant) (D-1 receptor [2]): 1.7 nM | time of optimal binding after subcutaneous injection (rat striatal membranes; subcutaneous, striatal membranes): 1 h | recoverable radioactivity from the polypropylene tubes [3]: 97%

CN1CCc2cc(Cl)c(O)cc2[C@@H](c2ccccc2)C1 [R-(+)-8-chloro-2,3,4,5-tetrahydro-3-methyl-5-phenyl-1H-3-benzazepine-7-ol, reference compound]
inhibition of striatal binding of [N-methyl-^3 H] Compound in vivo (rat striatal membranes; 1 umole of inhibitor): 90% | selectivity for dopamine D-1 receptors over D-2 receptors (dopamine D-1 receptors): 2500 fold
